{"source": "patent US20150259371A1", "about": "“METHODS AND COMPOUNDS FOR INHIBITING GLYCOSYLTRANSFERASES” (SIMON FRASER UNIVERSITY, priority 2010, published 2015)", "key": {"CHO cells": {"tested_on": "CHO cells", "assay": "Cell proliferation growth curves over 5 days, CHO cells", "assay_type": "cell-based, Chinese hamster", "details": "50 μM", "procedure": "(§1) (A) Cell proliferation curves over the course of 5 days for CHO cells following no (circles), 50 μM Ac-GlcNAc (squares) or 50 μM Ac-5SGlcNAc (triangles) treatment. The error bars indicate the deviation from the mean for triplicate measurements. […] Upper panel, probed with anti-O-GlcNAc antibody (CTD110.6); lower panel, probed with anti-actin antibody. (B) Cell proliferation curves over the course of 5 days for EMEG heterozygous mouse embryonic fibroblast cells following no (circles), 50 μM Ac-GlcNAc (squares) or 50 μM Ac-5SGlcNAc (triangles) treatment. The error bars indicate the deviation from the mean for triplicate measurements. […] Upper panel, probed with anti-O-GlcNAc antibody (CTD110.6); lower panel, probed with anti-actin antibody. (C) Western blots of CHO cell lysates following no (C) or Ac-5SGlcNAc administration at 50 μM for 4 days. Probed with (from top to bottom) anti-Spl antibody, anti O-GlcNAc (CTD110.6) antibody and anti-actin antibody. Full blot of the anti-Sp 1 is shown in panel (d). […]\n(§2) Cellular responses to Ac-5SGlcNAc (9) treatment and consequent decreases in O-GlcNAc levels were evaluated. […] We quantitatively evaluated cell proliferation and established growth curves over the course of 5 days in both CHO and EMEG32 heterozygous mouse embryonic fibroblast cells treated with 50 μM Ac-5SGlcNAc (9), 50 μM Ac-GlcNAc (G), or vehicle (FIGS. 5A-B)."}, "transcription factor Sp1": {"tested_on": "transcription factor Sp1", "assay": "Western blot of Sp1 levels in CHO cells", "assay_type": "cell-based, Chinese hamster", "details": "50 μM, 4 days", "procedure": "as §1, §2"}, "[1]": {"tested_on": "O-GlcNAc levels in CHO cells", "assay": "Western blot of O-GlcNAc levels (CTD110.6) in treated CHO cells", "assay_type": "cell-based, Chinese hamster", "procedure": "Cell culture: Cells were grown in an incubator at 37° C. and 5% CO2 atmosphere. Media and serum were purchased from Invitrogen. COS-7 cells were cultured in Dulbecco's modified Eagle's medium (DMEM) with 5% fetal bovine serum (FBS), and were typically 80-100% confluent prior to experimentation. HepG2, SK-N-SH, and EMEG32^−/− cells were cultured in Dulbecco's modified Eagle's medium (DMEM) with 5% fetal bovine serum (FBS), CHO cells in DMEMF-12 with 5% FBS and PC12 cells in DMEM with 5% FBS and 5% horse serum. Prior to experimentation, PC12 cells were plated at a density of 3-4×10^5 cells10 cm plate, which had been pre-treated with 5 μgcm^2 rat tail collagen (BD Biosciences). Cells were differentiated in DMEM containing 1% horse serum, in the presence of 2.5S mouse nerve growth factor (Chemicon) at a final concentration of 25 ng mL^−1, for 4-5 days prior to treatment. Other cell lines were 80-100% confluent prior to treatment. […]\nAntibodieslectins: O-GlcNAc levels were assessed primarily using CTD110.6 (Covance), but RL2 (Abcam) and HGAC85 (Abcam) were also tested. […] OGA levels were assessed using a polyclonal anti-OGA antibody which was a kind gift from Dr. Gerald Hart and OGT levels using H-300 (Santa Cruz Biotechnology). nup62 was probed using mAb 414 (Covance). […]"}, "cell lines examined": {"tested_on": "cell lines examined", "assay": "Qualitative observation of cell morphology and proliferation in treated cell lines", "assay_type": "cell-based", "details": "at the doses assayed", "procedure": "Despite OGA levels continuing to drop and OGT levels rising over 5 days of dosing, O-GlcNAc levels remained low and unchanged after 24 hours (FIG. 2C).\nas §2"}, "OGT": {"tested_on": "OGT", "assay": "Western blot of OGT levels in treated COS-7 cells", "assay_type": "cell-based, African green monkey", "details": "50 μM, 24 h", "procedure": "(§3) Westernlectin blots: Samples were run on 10% SDS polyacrylamide gels and transferred onto nitrocellulose membranes (Biorad). Membranes were blocked for 1 h in PBS containing 0.1% Tween-20 (PBS-T) containing 1% (unless otherwise stated) bovine serum albumin (BSA), and probed with the appropriate primary antibody or lectin in 1% BSA in PBS-T overnight at 4° C. Blots were washed for 1 hr with PBS-T, and blocked for a further 30 min with 1% BSA in PBS-T at room temperature. They were then probed with the appropriate horseradish peroxidise (HRP)-conjugated secondary antibodyprobe in 1% BSA in PBS-T at room temperature for 1 h, followed by washing in PBS-T for 1 h. Blots were developed with SuperSignal West Pico Chemiluminescent Substrate (Pierce) and exposed to CL-XPosure film (Pierce). Densitometry was performed using ImageQuant 5.2 (Molecular Dynamics), and fits to the data were made using GRAFIT^41.\nAntibodieslectins: O-GlcNAc levels were assessed primarily using CTD110.6 (Covance), but RL2 (Abcam) and HGAC85 (Abcam) were also tested. Actin was probed using JLA20 (Developmental Studies Hybridoma Bank). OGA levels were assessed using a polyclonal anti-OGA antibody which was a kind gift from Dr. Gerald Hart and OGT levels using H-300 (Santa Cruz Biotechnology). nup62 was probed using mAb 414 (Covance). […]"}, "[2]": {"tested_on": "O-GlcNAc levels in COS-7 cells", "assay": "Western blot of O-GlcNAc levels (CTD110.6) in treated COS-7 cells", "assay_type": "cell-based, African green monkey", "procedure": "Cell culture: Cells were grown in an incubator at 37° C. and 5% CO2 atmosphere. Media and serum were purchased from Invitrogen. COS-7 cells were cultured in Dulbecco's modified Eagle's medium (DMEM) with 5% fetal bovine serum (FBS), and were typically 80-100% confluent prior to experimentation. HepG2, SK-N-SH, and EMEG32^−/− cells were cultured in Dulbecco's modified Eagle's medium (DMEM) with 5% fetal bovine serum (FBS), CHO cells in DMEMF-12 with 5% FBS and PC12 cells in DMEM with 5% FBS and 5% horse serum. Prior to experimentation, PC12 cells were plated at a density of 3-4×10^5 cells10 cm plate, which had been pre-treated with 5 μgcm^2 rat tail collagen (BD Biosciences). Cells were differentiated in DMEM containing 1% horse serum, in the presence of 2.5S mouse nerve growth factor (Chemicon) at a final concentration of 25 ng mL^−1, for 4-5 days prior to treatment. Other cell lines were 80-100% confluent prior to treatment. Following treatment with (Ac-)5SGlcNAc, using various conditions, cells were washed gently with PBS, lysed in SDS loading buffer and boiled for 10 minutes. Mouse hybridoma cells (obtained from the Developmental Studies Hybridoma Bank; antibody E7 for (:1-tubulin) were cultured in RPMI40 with 10% FBS. Prior to treatment with Ac-5SGlcNAc, hybridoma cells were cultured for 2 days in RPMI40 with 5% FBS, and during treatment in RPMI40 with no serum. Cells were collected, centrifuged (800 x g, 5 min) and the supernatant removed. Cells were washed with PBS, centrifuged, the pellet resuspended in SDS loading buffer and boiled. The supernatant after centrifugation, which contained the IgG antibody produced by the cells, was used for immunoprecipitation (see below for details).\nas §3\nAntibodieslectins: O-GlcNAc levels were assessed primarily using CTD110.6 (Covance), but RL2 (Abcam) and HGAC85 (Abcam) were also tested. Actin was probed using JLA20 (Developmental Studies Hybridoma Bank). OGA levels were assessed using a polyclonal anti-OGA antibody which was a kind gift from Dr. Gerald Hart and OGT levels using H-300 (Santa Cruz Biotechnology). nup62 was probed using mAb 414 (Covance). Secondary antibodies employed (HRP-conjugated goat anti-mouse IgM, goat anti-mouse IgG, goat anti-chicken IgY and goat anti-rabbit IgG) were obtained from Santa Cruz Biotechnology. Biotinylated-ConA, PHA-L, SNA and MAA were purchased from EY Laboratories, and biotinylated-GNA from Vector Laboratories. HRP-conjugated streptavidin (Pierce) was used as a probe for the biotinylated lectins.\nAnalogues (9, 10, 17-41) were tested in COS-7 cells, dosed at a final concentration of 50 μM in DMSO for 24 h. Following treatment, cells were washed with PBS, harvested into SDS-PAGE loading buffer and analyzed by western blot using standard procedures; blots were probed with the anti-O-GlcNAc antibody (CTD 110.6)."}}, "note": "“Also recorded” adds a separate entry of the source."}
{"smiles": "CC(=O)NC1C(OC(C)=O)SC(COC(C)=O)C(OC(C)=O)C1OC(C)=O", "note": "[Compound 9, N-Acetyl-1,3,4,6-tetra-O-acetyl-α-D-5-thio-glucosamine]", "values": [{"measurement": "growth rate", "setting": "CHO cells", "result": "indistinguishable from those of Ac-GlcNAc (G) and vehicle treated cells"}, {"measurement": "Sp1 levels", "setting": "transcription factor Sp1", "result": "decreases were observed in the levels of transcription factor Sp1"}, {"measurement": "O-GlcNAc levels at last time point of growth curve", "setting": "[1]; 50 μM, 5 days", "result": "O-GlcNAc levels are still significantly decreased in cells treated with Ac-5SGlcNAc"}, {"measurement": "EC50", "setting": "[1]; Cricetulus griseus, 24 h, read-out: EC50 for reduction of O-GlcNAc levels", "result": 800, "unit": "nM"}, {"measurement": "changes in cell morphology or rate of proliferation", "setting": "cell lines examined", "result": "no apparent changes in cell morphology or rate of proliferation"}, {"measurement": "OGT levels", "setting": "OGT", "result": "increase in OGT levels"}, {"measurement": "O-GlcNAc levels on dosing for 5 days", "setting": "[2]; 50 μM, 5 days", "result": "O-GlcNAc levels dropped in the first day and remained low"}, {"measurement": "O-GlcNAc levels, time course", "setting": "[2]; 50 μM, hours, listed as Ac-5SGlcNAc", "result": "almost no O-GlcNAc being detectable after 24 hours; also recorded: O-GlcNAc levels diminish to a low level by 24 h"}, {"measurement": "effect on O-GlcNAc levels, dose response", "setting": "[2]; 24 hours", "result": "decreased O-GlcNAc levels in a dose-dependent fashion"}, {"measurement": "EC50", "setting": "[2]; Chlorocebus sabaeus, 24 h, densitometry of western blot, read-out: EC50 for reduction of O-GlcNAc levels", "result": 5000, "unit": "nM"}, {"measurement": "time for O-GlcNAc to return to basal levels after change to media without compound", "setting": "[2]; after 50 μM for 24 h", "result": "≤ 24", "unit": "h"}]}
